The logD is lipophilicity at a set pH, counting ionised and neutral species. As a reminder, the half-life is the time in which the quantity being followed falls by half. As a reminder, the Km is the substrate concentration at which the rate is half of its maximum. A word on the kcat: it is the number of substrate molecules converted per active site and unit of time at saturation. What is called kcat/Km is the turnover number divided by the Michaelis constant.

Data set [1] can be described thus: (§1) Induction of apoptosis in human MNT1 cells assessed as apoptotic/necrotic cells at 100 uM after 48 hrs by APC-labeled annexin V and 7-AAD staining-based flow cytometric analysis relative to control. The data set is classed as functional. (In flow cytometry, cells or beads pass a laser one at a time.)
The nature of data set [2]: Octanol-phosphate buffer apparent partition coefficient, log P of the compound at pH7.4 after 30 mins by HPLC analysis. The data set is classed as physicochemical. The conditions noted are these: pH 7.4.
A further data set relates to M8. In words: Induction of apoptosis in human M8 cells assessed as apoptotic/necrotic cells at 50 to 100 uM after 48 hrs by APC-labeled annexin V and 7-AAD staining-based flow cytometric analysis. The data set is classed as functional, cell-based.
Data set [3] can be described thus: Half life in PBS buffer at 10^-5 M at pH 7.4 by HPLC analysis. The data set is classed as ADME.
Data set [4] is described as follows: (§2) Induction of apoptosis in human MNT1 cells assessed as apoptotic/necrotic cells at 50 uM after 48 hrs by APC-labeled annexin V and 7-AAD staining-based flow cytometric analysis relative to control. The data set is classed as functional.
Data set [5] concerns MNT1. In words: Induction of apoptosis in human MNT1 cells assessed as apoptotic/necrotic cells after 48 hrs by APC-labeled annexin V and 7-AAD staining-based flow cytometric analysis. The data set is classed as functional, cell-based.
In data set [6] the test system is SK-MEL-30. In words: Induction of apoptosis in human SK-MEL-30 cells assessed as apoptotic/necrotic cells at 100 uM after 48 hrs by APC-labeled annexin V and 7-AAD staining-based flow cytometric analysis relative to control. The data set is classed as functional.
The nature of data set [7]: Half life in phosphate buffer assessed as mushroom tyrosinase-mediated prodrug conversion at 10^-5 M at pH 7.4 by HPLC analysis. The data set is classed as ADME. To be noted: agaricus bisporus, pH 7.4, 10 µM.
Data set [8] is described as follows: Half life in 80% human plasma at 10^-5 M by HPLC analysis. The data set is classed as ADME, cell-free.
The test system of data set [9] is SK-MEL-30. In words: Induction of apoptosis in human SK-MEL-30 cells assessed as apoptotic/necrotic cells at 50 uM after 48 hrs by APC-labeled annexin V and 7-AAD staining-based flow cytometric analysis relative to control. The data set is classed as functional.
The test system of data set [10] is MNT1. The data set is described as §1. The data set is classed as functional.
In data set [11] the test system is MNT1. The data set is described as §2. The data set is classed as functional.
Data set [12] is described as follows: Stability in phosphate buffer assessed as mushroom tyrosinase-mediated prodrug conversion at 10^-5 M at pH 7.4 after 1 hr by HPLC analysis in presence of mushroom tyrosinase. The data set is classed as ADME. To be noted: agaricus bisporus, pH 7.4, 1 h, 10 µM.
The nature of data set [13]: Chemical stability in PBS buffer at 10^-5 M at pH 7.4 after 15 days by HPLC analysis. To be noted: pH 7.4, 360 h, 10 µM. The data set is classed as physicochemical.
Substrate in data set [14]: COC(=O)c1ccc(/N=N/N(C)C(=O)[C@H](Cc2ccc(O)cc2)NC(C)=O)cc1
In words: (§3) Activity at mushroom tyrosinase by Michaelis-Menten plot analysis. The conditions noted are these: Agaricus bisporus.

Substrate in data set [15]: N[C@@H](Cc1ccc(O)cc1)C(=O)O
The data set is described as §3. To be noted: Agaricus bisporus.

Substrate in data set [16]: CC(=O)N[C@@H](Cc1ccc(O)cc1)C(=O)N(C)/N=N/c1ccc(C#N)cc1
Described as §3. To be noted: Agaricus bisporus.

Substrate in data set [17]: NCCc1ccc(O)c(O)c1
Described as §3. To be noted: Agaricus bisporus.

Substrate in data set [18]: NCCc1ccc(O)cc1
The description is as §3. The conditions noted are these: Agaricus bisporus.

Substrate in data set [19]: COC(=O)c1ccc(/N=N/N(C)C(=O)[C@H](Cc2ccc(O)cc2)NC(C)=O)cc1
In words: (§4) Ratio of Kcat to Km for mushroom tyrosinase. The conditions noted are these: Agaricus bisporus.

Substrate in data set [20]: CC(=O)N[C@@H](Cc1ccc(O)cc1)C(=O)N(C)/N=N/c1ccc(C#N)cc1
The data set is described as §4. To be noted: Agaricus bisporus.

Active and inactive are the calls of the source. No cut-off for these calls is given here.

For the molecule `CC(=O)N[C@@H](Cc1ccc(O)cc1)C(=O)N(C)/N=N/c1ccc(C#N)cc1`, the Activity was 17.01% in data set [1]; 8.5% in data set [4]; “Dose-dependent effect” in the data set with MNT1 [5]; 12.47% in the data set with SK-MEL-30 [6]; 10.41% in the data set on SK-MEL-30 [9]. Also, the logD at 0.5 h in data set [2] stood at 2.14. Besides, the outcome in the data set with M8 was inactive. Also, the figures for the half-life at 10 µM in data set [3] and in [8] were 42.7 h and 1.23 h, respectively. In data set [7], the t1/2 is 0.26 h.
Take `Cn1nnc2c(C(N)=O)ncn2c1=O`: the outcome in the data set on MNT1 [10], with M8, with MNT1 [11], in the data set on SK-MEL-30 [6] and in the data set with SK-MEL-30 [9] was Active.
On to `CN(/N=N/c1ccc(C#N)cc1)C(=O)[C@H](Cc1ccc(O)cc1)NC(=O)OC(C)(C)C`, for which, in [12], the Stability result is “Stable”. Besides, in [2], the log distribution coefficient (logD) at 0.5 h was found to be 3.9. Also, the half-life at 10 µM was 48.5 h in [3] and 8.1 h in [8].
For the molecule `CC(=O)N[C@@H](Cc1ccc(O)cc1)C(=O)N(C)/N=N/c1ccc(Br)cc1`, in data set [2], the log distribution coefficient (logD) at 0.5 h is 3.36. The Stability entry in data set [13] is given as “Stable”. For the same molecule, the t1/2 in [7] amounted to 0.148 h. The molecule further had a half-life at 10 µM in [8] of 6.8 h.
On to `COC(=O)c1ccc(/N=N/N(C)C(=O)[C@H](Cc2ccc(O)cc2)NC(C)=O)cc1`, for which the log distribution coefficient (logD) at 0.5 h in [2] amounted to 2.12. Further, the half-life at 10 µM in [3] was 75.1 h; in data set [8], 2.8 h. In data set [7], the t1/2 came out at 0.305 h.
The matching figures for `CC(=O)N[C@@H](Cc1ccc(O)cc1)C(=O)N(C)/N=N/c1ccc(C(N)=O)cc1`: 1.27, 40.6 h, 5.19 h and 0.29 h.
Regarding `CC(=O)N[C@@H](Cc1ccc(O)cc1)C(=O)N(C)/N=N/c1ccc(C(C)=O)cc1`, the Activity in [1] was 11.23%; in data set [4], 7.88%; with MNT1 [5] it was “Dose-dependent effect”. For the same molecule, in data set [2], the pH-dependent lipophilicity (logD) at 0.5 h worked out at 2.33. The half-life at 10 µM in [3] is 56.6 h; in data set [8], 1.41 h. Besides, the t1/2 in data set [7] was 0.33 h.
`CCOC(=O)c1ccc(/N=N/N(C)C(=O)[C@H](Cc2ccc(O)cc2)NC(C)=O)cc1`: the Activity in data set [1] was 21.23%; in [4], 17.46%; in the data set with MNT1 [5] it was “Dose-dependent effect”. In addition, the logD at 0.5 h in [2] is 2.96. Moreover, the values for the half-life at 10 µM in data set [3] and in data set [8] were 70.3 h and 5.32 h, respectively. For the same molecule, the t1/2 in [7] is 0.3 h.
On to `CC(=O)c1ccc(/N=N/N(C)C(=O)[C@H](Cc2ccc(O)cc2)NC(=O)OC(C)(C)C)cc1`, for which the Stability entry in data set [12] is on record as “Stable”. Further, in data set [2], the log distribution coefficient (logD) at 0.5 h is 3.85. Also, the figures for the half-life at 10 µM in [3] and in data set [8] were 72.2 h and 9.54 h, respectively.

B1: Tyrosinase (Agaricus bisporus), O42713 (protein)
chain: MSLIATVGPTGGVKNRLNIVDFVKNEKFFTLYVRSLELLQAKEQHDYSSFFQLAGIHGLPFTEWAKERPSMNLYKAGYCTHGQVLFPTWHRTYLSVLEQILQGAAIEVAKKFTSNQTDWVQAAQDLRQPYWDWGFELMPPDEVIKNEEVNITNYDGKKISVKNPILRYHFHPIDPSFKPYGDFATWRTTVRNPDRNRREDIPGLIKKMRLEEGQIREKTYNMLKFNDAWERFSNHGISDDQHANSLESVHDDIHVMVGYGKIEGHMDHPFFAAFDPIFWLHHTNVDRLLSLWKAINPDVWVTSGRNRDGTMGIAPNAQINSETPLEPFYQSGDKVWTSASLADTARLGYSYPDFDKLVGGTKELIRDAIDDLIDERYGSKPSSGARNTAFDLLADFKGITKEHKEDLKMYDWTIHVAFKKFELKESFSLLFYFASDGGDYDQENCFVGSINAFRGTAPETCANCQDNENLIQEGFIHLNHYLARDLESFEPQDVHKFLKEKGLSYKLYSRGDKPLTSLSVKIEGRPLHLPPGEHRPKYDHTQARVVFDDVAVHVIN
On to B1, for which the Michaelis constant (Km) came out at 220 µM in [14]; 250 µM in [15]; 200 µM in [16]; 280 µM in data set [17]; 540 µM in data set [18]. Also, the Vmax in data set [14] worked out at 9.7 ×10⁻⁶ mM/min; in [16] it was 5.4 ×10⁻⁶ mM/min. Moreover, the kcat in data set [14] was found to be 0.05 s⁻¹; in data set [16], 0.03 s⁻¹. Moreover, the kcat/Km in data set [19] was 246 M⁻¹ s⁻¹; in data set [20] it was 151 M⁻¹ s⁻¹.

The values are drawn from ChEMBL document CHEMBL3085654, “Synthesis and evaluation of N-acylamino acids derivatives of triazenes. Activation by tyrosinase in human melanoma cell lines” (Eur J Med Chem, 2013).
